Measurements from paper PMC6222606, “Biodegradation of 7-Hydroxycoumarin in Pseudomonas mandelii 7HK4 via ipso-Hydroxylation of 3-(2,4-Dihydroxyphenyl)-propionic Acid” (Molecules : A Journal of Synthetic Chemistry and Natural …, 2018).

Biological target: T1, HcdB (Pseudomonas mandelii, UniProt A0A385IUB9)
T1 sequence (A0A385IUB9 1-186): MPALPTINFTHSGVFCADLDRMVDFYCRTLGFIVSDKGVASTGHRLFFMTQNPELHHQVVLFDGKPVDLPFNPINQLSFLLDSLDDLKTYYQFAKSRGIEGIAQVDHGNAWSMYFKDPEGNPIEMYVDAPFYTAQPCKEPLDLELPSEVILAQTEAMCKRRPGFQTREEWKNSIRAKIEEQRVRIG
Assay: whole-cell bioconversion, UV-VIS of yellow meta-cleavage product; cells without hcdB inactive
Format: cell-based
Conditions: […] potassium phosphate pH […] °C, […] substrate

In the case of `Oc1ccccc1O` [pyrocatechol], the “whole-cell bioconversion, UV-VIS of yellow meta-cleavage product; cells without” value is reported as “HcdB is capable oxidizing pyrocatechol, 3-methylcatechol, 3-methoxycatechol, 4-methylcatechol”.
